In the NIST ThermoML archive (doi:10.1016/j.jct.2016.10.034):

Assay: xn = mol fraction of the nth substance listed
Conditions: 100 kPa, Liquid; for viscosity: Falling or rolling sphere viscometry; for mass density: Vibrating tube method

CC(=O)[O-].CC[N+]1(C)CCCC1 [1-ethyl-1-methylpyrrolidinium acetate] + O
Conditions | mass density [kg/m3] | viscosity [mPa·s]
298.15 K, x1 = 0.1008 | 1046.6 | 6.95
298.15 K, x1 = 0.2083 | 1066.7 | 16.9
298.15 K, x1 = 0.3171 | 1070.7 | 29
298.15 K, x1 = 0.4126 | 1070.8 | 41.1
298.15 K, x1 = 0.481 | 1070.2 | 50.9
298.15 K, x1 = 0.5857 | 1069.2 | 69.3
298.15 K, x1 = 0.6728 | 1068.1 | 88.3
298.15 K, x1 = 0.766 | 1066.9 | 116
298.15 K, x1 = 0.8963 | 1065.4 | 173
303.15 K, x1 = 0.1008 | 1043.6 | 5.96
303.15 K, x1 = 0.2083 | 1063.6 | 14.2
303.15 K, x1 = 0.3171 | 1067.6 | 24.2
303.15 K, x1 = 0.4126 | 1067.8 | 34.5
303.15 K, x1 = 0.481 | 1067.2 | 42.8
303.15 K, x1 = 0.5857 | 1066.3 | 57.2
303.15 K, x1 = 0.6728 | 1065.3 | 71.4
303.15 K, x1 = 0.766 | 1064 | 91.3
303.15 K, x1 = 0.8963 | 1062.5 | 134
308.15 K, x1 = 0.1008 | 1040.7 | 5.32
308.15 K, x1 = 0.2083 | 1060.3 | 11.9
308.15 K, x1 = 0.3171 | 1064.5 | 19.7
308.15 K, x1 = 0.4126 | 1064.8 | 28
308.15 K, x1 = 0.481 | 1064.2 | 35.1
308.15 K, x1 = 0.5857 | 1063.1 | 46.7
308.15 K, x1 = 0.6728 | 1062.2 | 57.6
308.15 K, x1 = 0.766 | 1060.7 | 74.2
308.15 K, x1 = 0.8963 | 1059.4 | 107
313.15 K, x1 = 0.1008 | 1037.7 | 4.77
313.15 K, x1 = 0.2083 | 1057.1 | 10.6
313.15 K, x1 = 0.3171 | 1061.4 | 16.9
313.15 K, x1 = 0.4126 | 1061.8 | 23.5
313.15 K, x1 = 0.481 | 1061.3 | 28.9
313.15 K, x1 = 0.5857 | 1060.4 | 38.7
313.15 K, x1 = 0.6728 | 1059.4 | 48.5
313.15 K, x1 = 0.766 | 1057.9 | 62.8
313.15 K, x1 = 0.8963 | 1056.6 | 88.5
318.15 K, x1 = 0.1008 | 1034.6 | 4.3
318.15 K, x1 = 0.2083 | 1053.8 | 9.09
318.15 K, x1 = 0.3171 | 1058.2 | 14
318.15 K, x1 = 0.4126 | 1058.7 | 19.7
318.15 K, x1 = 0.481 | 1058.3 | 23.6
318.15 K, x1 = 0.5857 | 1057.5 | 30.3
318.15 K, x1 = 0.6728 | 1056.6 | 38.4
318.15 K, x1 = 0.766 | 1055 | 51.4
318.15 K, x1 = 0.8963 | 1053.7 | 70.8
323.15 K, x1 = 0.1008 | – | 3.87
323.15 K, x1 = 0.2083 | – | 7.91
323.15 K, x1 = 0.3171 | – | 11.6
323.15 K, x1 = 0.4126 | – | 16
323.15 K, x1 = 0.481 | – | 19.8
323.15 K, x1 = 0.5857 | – | 26.2
323.15 K, x1 = 0.6728 | – | 32.7
323.15 K, x1 = 0.766 | – | 42.5
323.15 K, x1 = 0.8963 | – | 58
